Laboratory results as given in PubChem BioAssay AID248 (DTP/NCI, 2004).
Values joined by “and” are separate entries in the source; they are usually repeats but may differ in a detail not shown here. Equal entries are not always repeated. Inconclusive results and toxic doses are left out. Rule as the data show it: active = T/C of 150% or more; inactive = T/C below 125%.

Test system: L1210 leukemia ip in BDF1 mice, survival T/C
Test: NCI In Vivo Anticancer Drug Screen. Data for tumor model L1210 Leukemia (intraperitoneal) in B6D2F1 (BDF1) mice
Conditions: endpoint: mean survival time, higher = longer survival
In short: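 Survival endpoint. Drug-treated group vs vehicle group, expressed as T divided by C. Tumor passaged by transplantation.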

[1] = dose: 100.0 mg/kg/injection, schedule: Q01DX009 (ip), vehicle: saline with Tween-80
[2] = dose: 100.0 mg/kg/injection, schedule: Q04DX003 (ip), vehicle: saline with Tween-80
[3] = dose: 200.0 mg/kg/injection, schedule: Q04DX003 (ip), vehicle: saline with Tween-80
[4] = dose: 100.0 mg/kg/injection, schedule: Q01DX001 (ip), vehicle: saline
[5] = dose: 200.0 mg/kg/injection, schedule: Q01DX001 (ip), vehicle: saline
[6] = dose: 400.0 mg/kg/injection, schedule: Q01DX001 (ip), vehicle: saline
[7] = dose: 100.0 mg/kg/injection, schedule: Q01DX009 (ip), vehicle: Klucel (hydroxypropylcellulose) (HPC)
[8] = dose: 100.0 mg/kg/injection, schedule: Q04DX003 (ip), vehicle: Klucel (hydroxypropylcellulose) (HPC)
[9] = dose: 200.0 mg/kg/injection, schedule: Q01DX009 (ip), vehicle: Klucel (hydroxypropylcellulose) (HPC)
[10] = dose: 200.0 mg/kg/injection, schedule: Q04DX003 (ip), vehicle: Klucel (hydroxypropylcellulose) (HPC)
[11] = dose: 400.0 mg/kg/injection, schedule: Q01DX009 (ip), vehicle: Klucel (hydroxypropylcellulose) (HPC)
[12] = dose: 50.0 mg/kg/injection, schedule: Q01DX009 (ip), vehicle: Klucel (hydroxypropylcellulose) (HPC)
[13] = dose: 100.0 mg/kg/injection, schedule: Q04DX003 (ip), vehicle: saline
[14] = dose: 200.0 mg/kg/injection, schedule: Q04DX003 (ip), vehicle: saline
[15] = dose: 100.0 mg/kg/injection, schedule: Q04DX002 (ip), vehicle: Klucel (hydroxypropylcellulose) (HPC)
[16] = dose: 200.0 mg/kg/injection, schedule: Q04DX002 (ip), vehicle: Klucel (hydroxypropylcellulose) (HPC)
[17] = dose: 400.0 mg/kg/injection, schedule: Q04DX003 (ip), vehicle: saline with Tween-80
[18] = dose: 100.0 mg/kg/injection, schedule: Q01DX009 (ip), vehicle: saline
[19] = dose: 200.0 mg/kg/injection, schedule: Q01DX009 (ip), vehicle: saline
[20] = dose: 100.0 mg/kg/injection, schedule: Q01DX001 (ip), vehicle: carboxymethylcellulose (CMC)
[21] = dose: 200.0 mg/kg/injection, schedule: Q01DX001 (ip), vehicle: carboxymethylcellulose (CMC)
[22] = dose: 400.0 mg/kg/injection, schedule: Q01DX001 (ip), vehicle: carboxymethylcellulose (CMC)
[23] = dose: 50.0 mg/kg/injection, schedule: Q01DX009 (ip), vehicle: saline

Measured: T/C

CCCC(O)Cc1c[nH]c(=O)[nH]c1=O (stereo unspecified)
inactive: dose: 50.0 mg/kg/injection, schedule: Q01DX009 (ip), vehicle: saline with Tween-80 103 % of control | [1] 98 % of control | [2] 95 % of control | [3] 98 % of control

O=C1OC2c3ccccc3C3CC(=O)C2C13 (stereo unspecified)
inactive: dose: 50.0 mg/kg/injection, schedule: Q01DX001 (ip), vehicle: saline 98 % of control | [4] 104 % of control | [5] 98 % of control | [6] 96 % of control

CN1CCN(C(CO)Cc2ccccc2)CC1 (stereo unspecified)
inactive: [4] 98 % of control | [5] 104 % of control

CN(C)c1ccccc1C(=O)N/N=C\c1ccc(Cl)cc1
inactive: dose: 100.0 mg/kg/injection, schedule: Q04DX002 (ip), vehicle: gum acacia 96 % of control | dose: 200.0 mg/kg/injection, schedule: Q04DX002 (ip), vehicle: gum acacia 107 % of control | dose: 400.0 mg/kg/injection, schedule: Q04DX002 (ip), vehicle: gum acacia 100 % of control

CCOC(=O)/C=C\n1c(=O)cc(C)c2cc3c(C)cc(=O)n(C)c3cc21
inactive: dose: 50.0 mg/kg/injection, schedule: Q01DX001 (ip), vehicle: Klucel (hydroxypropylcellulose) (HPC) 99 % of control | dose: 100.0 mg/kg/injection, schedule: Q01DX001 (ip), vehicle: Klucel (hydroxypropylcellulose) (HPC) 87 % of control | dose: 200.0 mg/kg/injection, schedule: Q01DX001 (ip), vehicle: Klucel (hydroxypropylcellulose) (HPC) 92 % of control

O=C(Cl)c1ccccc1S(=O)(=O)N(CCOc1ccccc1)c1ccccc1
inactive: [7] 97 % of control | [8] 96 % of control | [9] 98 % of control | [10] 91 % of control | [11] 97 % of control | dose: 400.0 mg/kg/injection, schedule: Q04DX003 (ip), vehicle: Klucel (hydroxypropylcellulose) (HPC) 86 % of control

CC(C)OC(=S)Nc1ccccc1
inactive: [12] 102 % of control | dose: 100.0 mg/kg/injection, schedule: Q01DX001 (ip), vehicle: gum acacia 102 % of control | [7] 107 % of control | dose: 200.0 mg/kg/injection, schedule: Q01DX001 (ip), vehicle: gum acacia 98 % of control | [9] 98 % of control | dose: 400.0 mg/kg/injection, schedule: Q01DX001 (ip), vehicle: gum acacia 95 % of control

CN1CCN(C(=O)N2c3ccccc3Sc3ccccc32)CC1
inactive: dose: 12.5 mg/kg/injection, schedule: Q04DX003 (ip), vehicle: saline 99 % of control | dose: 25.0 mg/kg/injection, schedule: Q04DX003 (ip), vehicle: saline 95 % of control | dose: 50.0 mg/kg/injection, schedule: Q04DX003 (ip), vehicle: saline 101 % of control | [13] 100 % of control | [14] 92 % of control

Nc1nc(S)c(N)c(=S)[nH]1
inactive: dose: 9.5 mg/kg/injection, schedule: Q01DX001 (ip), vehicle: carboxymethylcellulose (CMC) 105 % of control | dose: 19.0 mg/kg/injection, schedule: Q01DX001 (ip), vehicle: carboxymethylcellulose (CMC) 94 % of control | dose: 38.0 mg/kg/injection, schedule: Q01DX001 (ip), vehicle: carboxymethylcellulose (CMC) 97 % of control

N=c1ccccn1CC(Cl)COc1ccccc1 (stereo unspecified)
inactive: [4] 104 % of control

CCO/C=N/c1oc(-c2ccccc2)nc1C#N
inactive: [15] 91 % of control | [16] 96 % of control

CC(C)CCCC(C)C1CCC2C3CC(=O)NC45CC4CCC5(C)C3CCC12C (stereo unspecified)
inactive: [2] 116 % of control | [3] 97 % of control | [17] 92 % of control

O=C1/C(=C\c2ccc(Cl)c(Cl)c2)N2CCC1CC2
inactive: [15] 96 % of control | [16] 104 % of control | dose: 400.0 mg/kg/injection, schedule: Q04DX002 (ip), vehicle: Klucel (hydroxypropylcellulose) (HPC) 114 % of control

COC(=O)c1ccccc1N(Cc1ccc(OC)c(OC)c1)S(=O)(=O)c1ccc(C)cc1
inactive: [4] 95 % of control | [5] 91 % of control | [6] 91 % of control

CC12CCC3C(CCC4CCCCC43C)C1CCC2CO (stereo unspecified)
inactive: dose: 100.0 mg/kg/injection, schedule: Q04DX002 (ip), vehicle: DMSO 101 % of control | dose: 200.0 mg/kg/injection, schedule: Q04DX002 (ip), vehicle: DMSO 99 % of control | dose: 400.0 mg/kg/injection, schedule: Q04DX002 (ip), vehicle: DMSO 89 % of control

COc1ccc(NC(=O)N2CCN(c3ccccc3)CC2)c(OC)c1
inactive: [7] 102 % of control | [9] 96 % of control | [11] 96 % of control

Cc1cnc(C(N)=O)c(=O)[nH]1
inactive: [18] 96 % of control | [13] 100 % of control | [19] 96 % of control | [14] 100 % of control | dose: 400.0 mg/kg/injection, schedule: Q01DX009 (ip), vehicle: saline 98 % of control | dose: 400.0 mg/kg/injection, schedule: Q04DX003 (ip), vehicle: saline 97 % of control

Cc1ccc(S(=O)(=O)Nc2cc(C)ccc2C)cc1
inactive: dose: 50.0 mg/kg/injection, schedule: Q01DX001 (ip), vehicle: carboxymethylcellulose (CMC) 93 % of control | [20] 95 % of control | [21] 104 % of control | [22] 88 % of control

Cc1c(-c2ccccc2)nn(O)c1-c1ccccc1
inactive: [12] 102 % of control | [7] 102 % of control | [9] 94 % of control

CCCCCCCCCCCC(=O)Nc1ccc(NC(C)=O)cc1
inactive: [1] 96 % of control and 104 % of control | dose: 100.0 mg/kg/injection, schedule: Q04DX002 (ip), vehicle: saline with Tween-80 93 % of control and 94 % of control | [2] 95 % of control | dose: 200.0 mg/kg/injection, schedule: Q01DX009 (ip), vehicle: saline with Tween-80 93 % of control and 96 % of control | dose: 200.0 mg/kg/injection, schedule: Q04DX002 (ip), vehicle: saline with Tween-80 111 % of control and 91 % of control | [3] 108 % of control | dose: 400.0 mg/kg/injection, schedule: Q01DX009 (ip), vehicle: saline with Tween-80 96 % of control | dose: 400.0 mg/kg/injection, schedule: Q04DX002 (ip), vehicle: saline with Tween-80 96 % of control and 102 % of control | [17] 95 % of control

O=c1cc(-c2ccccc2)c2ccc(O)cc2o1
inactive: [2] 95 % of control | [3] 101 % of control | [17] 93 % of control

CCCCC(CC)CNC(C)=O (stereo unspecified)
inactive: [8] 99 % of control | [10] 95 % of control

C=CCNC(=S)Nc1c(C)cc(C)cc1C
inactive: dose: 12.5 mg/kg/injection, schedule: Q01DX009 (ip), vehicle: Klucel (hydroxypropylcellulose) (HPC) 102 % of control | dose: 25.0 mg/kg/injection, schedule: Q01DX009 (ip), vehicle: Klucel (hydroxypropylcellulose) (HPC) 97 % of control | [12] 103 % of control

CC(=O)N(N=O)c1ccc(Cl)cc1[N+](=O)[O-]
inactive: [23] 101 % of control | [18] 104 % of control

CC(=O)Oc1ccc(C2(c3ccc(OC(C)=O)cc3)C(=O)Nc3ccccc32)cc1
inactive: [4] 91 % of control | [7] 103 % of control | [5] 92 % of control | [9] 97 % of control | [6] 87 % of control | [11] 104 % of control

COc1ccc(N=Nc2cc(C)c(C)cc2O)cc1
inactive: [7] 96 % of control | [9] 103 % of control | [11] 94 % of control

O=C1c2ccccc2C(=O)N1C1CCC(CO)C1 (stereo unspecified)
inactive: [20] 106 % of control | [21] 102 % of control | [22] 91 % of control

O=C(O)C(O)C(=O)O
inactive: [23] 95 % of control | [18] 89 % of control | [13] 103 % of control | [19] 92 % of control | [14] 100 % of control

Cc1ccnc(NS(=O)(=O)c2ccc(N=Nc3c(N)n(C)c(=O)n(C)c3=O)cc2)n1
inactive: [20] 98 % of control | [21] 93 % of control | [22] 95 % of control
